Assay results taken from patent US20250101023A1, “HETEROARYL DERIVATIVE AND USES THEREOF” (IUCF-HYU (INDUSTRY-UNIVERSITY COOPERATION FOUNDATION …, priority 2022, published 2025).

What was measured:
CDK12/CyclinK = CDK12/CyclinK (Homo sapiens (Human), UniProt Q9NYV4); test: CDK12/cyclinK enzyme activity; type: biochemical; details: in vitro
[1] = tested on: Pol II CTD (Ser2) phosphorylation; test: Western blot, Pol II CTD Ser2 phosphorylation; type: cell-based; details: SK-Br3 and HCC1954 cell lines, 40 and 200 nM, 2 hours
PAK4 = PAK4 (Homo sapiens (Human), UniProt O96013); test: Kinome-wide profiling; type: biochemical; details: read-out: % Residual Activity (mean)
CDK16/cyclin Y (PCTAIRE) = CDK16/cyclin Y (PCTAIRE) (Homo sapiens (Human), UniProt Q00536); test: Kinome-wide profiling; type: biochemical; details: read-out: % Residual Activity (mean)
LRRK2 = LRRK2 (Homo sapiens (Human), UniProt Q5S007); test: Kinome-wide profiling; type: biochemical; details: read-out: % Residual Activity (mean)
ARK5/NUAK1 = ARK5/NUAK1 (Homo sapiens (Human), UniProt O60285); test: Kinome-wide profiling; type: biochemical; details: read-out: % Residual Activity (mean)
CK1g1 = CK1g1 (Homo sapiens (Human), UniProt Q9HCP0); test: Kinome-wide profiling; type: biochemical; details: read-out: % Residual Activity (mean)
CK1g3 = CK1g3 (Homo sapiens (Human), UniProt Q9Y6M4); test: Kinome-wide profiling; type: biochemical; details: read-out: % Residual Activity (mean)
PAK1 = PAK1 (Homo sapiens (Human), UniProt Q13153); test: Kinome-wide profiling; type: biochemical; details: read-out: % Residual Activity (mean)
CK1g2 = CK1g2 (Homo sapiens (Human), UniProt P78368); test: Kinome-wide profiling; type: biochemical; details: read-out: % Residual Activity (mean)
HPK1/MAP4K1 = HPK1/MAP4K1 (Homo sapiens (Human), UniProt Q92918); test: Kinome-wide profiling; type: biochemical; details: read-out: % Residual Activity (mean)
TXK = TXK (Homo sapiens (Human), UniProt P42681); test: Kinome-wide profiling; type: biochemical; details: read-out: % Residual Activity (mean)
STK38L/NDR2 = STK38L/NDR2 (Homo sapiens (Human), UniProt Q9Y2H1); test: Kinome-wide profiling; type: biochemical; details: read-out: % Residual Activity (mean)
EPHA2 = EPHA2 (Homo sapiens (Human), UniProt P29317); test: Kinome-wide profiling; type: biochemical; details: read-out: % Residual Activity (mean)
HCK = HCK (Homo sapiens (Human), UniProt P08631); test: Kinome-wide profiling; type: biochemical; details: read-out: % Residual Activity (mean)
SYK = SYK (Homo sapiens (Human), UniProt P43405); test: Kinome-wide profiling; type: biochemical; details: read-out: % Residual Activity (mean)
GLK/MAP4K3 = GLK/MAP4K3 (Homo sapiens (Human), UniProt Q8IVH8); test: Kinome-wide profiling; type: biochemical; details: read-out: % Residual Activity (mean)
GRK7 = GRK7 (Homo sapiens (Human), UniProt Q8WTQ7); test: Kinome-wide profiling; type: biochemical; details: read-out: % Residual Activity (mean)
ERN1/IRE1 = ERN1/IRE1 (Homo sapiens (Human), UniProt O75460); test: Kinome-wide profiling; type: biochemical; details: read-out: % Residual Activity (mean)
ABL2/ARG = ABL2/ARG (Homo sapiens (Human), UniProt P42684); test: Kinome-wide profiling; type: biochemical; details: read-out: % Residual Activity (mean)
PAK6 = PAK6 (Homo sapiens (Human), UniProt Q9NQU5); test: Kinome-wide profiling; type: biochemical; details: read-out: % Residual Activity (mean)
IGF1R = IGF1R (Homo sapiens (Human), UniProt P08069); test: Kinome-wide profiling; type: biochemical; details: read-out: % Residual Activity (mean)
GCK/MAP4K2 = GCK/MAP4K2 (Homo sapiens (Human), UniProt Q12851); test: Kinome-wide profiling; type: biochemical; details: read-out: % Residual Activity (mean)
RIPK2 = RIPK2 (Homo sapiens (Human), UniProt O43353); test: Kinome-wide profiling; type: biochemical; details: read-out: % Residual Activity (mean)
TNIK = TNIK (Homo sapiens (Human), UniProt Q9UKE5); test: Kinome-wide profiling; type: biochemical; details: read-out: % Residual Activity (mean)
SLK/STK2 = SLK/STK2 (Homo sapiens (Human), UniProt Q9H2G2); test: Kinome-wide profiling; type: biochemical; details: read-out: % Residual Activity (mean)
GRK1 = GRK1 (Homo sapiens (Human), UniProt Q15835); test: Kinome-wide profiling; type: biochemical; details: read-out: % Residual Activity (mean)
Haspin = Haspin (Homo sapiens (Human), UniProt Q8TF76); test: Kinome-wide profiling; type: biochemical; details: read-out: % Residual Activity (mean)
MARK3 = MARK3 (Homo sapiens (Human), UniProt P27448); test: Kinome-wide profiling; type: biochemical; details: read-out: % Residual Activity (mean)
IKKb/IKBKB = IKKb/IKBKB (Homo sapiens (Human), UniProt O14920); test: Kinome-wide profiling; type: biochemical; details: read-out: % Residual Activity (mean)
EGFR = EGFR (Homo sapiens (Human), UniProt P00533); test: Kinome-wide profiling; type: biochemical; details: read-out: % Residual Activity (mean)
SSTK/TSSK6 = SSTK/TSSK6 (Homo sapiens (Human), UniProt Q9BXA6); test: Kinome-wide profiling; type: biochemical; details: read-out: % Residual Activity (mean)
KDR/VEGFR2 = KDR/VEGFR2 (Homo sapiens (Human), UniProt P35968); test: Kinome-wide profiling; type: biochemical; details: read-out: % Residual Activity (mean)
NEK1 = NEK1 (Homo sapiens (Human), UniProt Q96PY6); test: Kinome-wide profiling; type: biochemical; details: read-out: % Residual Activity (mean)
HIPK3 = HIPK3 (Homo sapiens (Human), UniProt Q9H422); test: Kinome-wide profiling; type: biochemical; details: read-out: % Residual Activity (mean)
AKT1 = AKT1 (Homo sapiens (Human), UniProt P31749); test: Kinome-wide profiling; type: biochemical; details: read-out: % Residual Activity (mean)
IRAK2 = IRAK2 (Homo sapiens (Human), UniProt O43187); test: Kinome-wide profiling; type: biochemical; details: read-out: % Residual Activity (mean)
PKG1b = PKG1b (Homo sapiens (Human), UniProt Q13976); test: Kinome-wide profiling; type: biochemical; details: read-out: % Residual Activity (mean)

Chain of IKKb/IKBKB (O14920 whole entry): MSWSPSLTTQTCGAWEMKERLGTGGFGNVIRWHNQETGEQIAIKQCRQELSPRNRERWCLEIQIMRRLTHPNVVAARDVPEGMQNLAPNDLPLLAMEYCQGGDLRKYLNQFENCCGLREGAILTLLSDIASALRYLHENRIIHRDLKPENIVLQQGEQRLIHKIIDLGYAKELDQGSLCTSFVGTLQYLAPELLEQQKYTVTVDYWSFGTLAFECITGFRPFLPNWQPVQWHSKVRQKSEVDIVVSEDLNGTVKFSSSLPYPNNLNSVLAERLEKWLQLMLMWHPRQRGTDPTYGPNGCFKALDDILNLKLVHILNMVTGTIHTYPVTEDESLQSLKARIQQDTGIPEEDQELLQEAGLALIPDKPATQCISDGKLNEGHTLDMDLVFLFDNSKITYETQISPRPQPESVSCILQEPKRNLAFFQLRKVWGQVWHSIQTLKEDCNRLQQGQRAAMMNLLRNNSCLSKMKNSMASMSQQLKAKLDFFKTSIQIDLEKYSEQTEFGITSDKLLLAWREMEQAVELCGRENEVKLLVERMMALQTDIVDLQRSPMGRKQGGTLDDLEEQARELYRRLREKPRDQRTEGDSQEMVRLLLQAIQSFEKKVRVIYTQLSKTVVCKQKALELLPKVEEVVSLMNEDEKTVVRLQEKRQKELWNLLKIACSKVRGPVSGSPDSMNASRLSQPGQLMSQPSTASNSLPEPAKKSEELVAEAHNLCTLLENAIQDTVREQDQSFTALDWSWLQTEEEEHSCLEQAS
Chain of CDK16/cyclin Y (PCTAIRE) (Q00536 whole entry): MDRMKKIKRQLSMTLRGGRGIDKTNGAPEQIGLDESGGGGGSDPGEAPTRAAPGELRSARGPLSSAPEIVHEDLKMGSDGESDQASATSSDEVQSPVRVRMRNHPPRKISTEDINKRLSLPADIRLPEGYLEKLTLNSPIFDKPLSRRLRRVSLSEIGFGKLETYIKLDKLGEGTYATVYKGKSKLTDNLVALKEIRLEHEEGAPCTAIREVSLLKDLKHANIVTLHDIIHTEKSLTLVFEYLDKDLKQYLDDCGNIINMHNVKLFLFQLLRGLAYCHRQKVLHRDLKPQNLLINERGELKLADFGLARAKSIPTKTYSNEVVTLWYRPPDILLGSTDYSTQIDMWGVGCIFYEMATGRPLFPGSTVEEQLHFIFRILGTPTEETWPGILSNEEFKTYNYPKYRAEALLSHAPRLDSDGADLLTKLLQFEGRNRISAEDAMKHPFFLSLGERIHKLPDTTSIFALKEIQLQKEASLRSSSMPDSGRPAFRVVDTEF
Chain of CDK16/cyclin Y (PCTAIRE) (Q8ND76 whole entry partner): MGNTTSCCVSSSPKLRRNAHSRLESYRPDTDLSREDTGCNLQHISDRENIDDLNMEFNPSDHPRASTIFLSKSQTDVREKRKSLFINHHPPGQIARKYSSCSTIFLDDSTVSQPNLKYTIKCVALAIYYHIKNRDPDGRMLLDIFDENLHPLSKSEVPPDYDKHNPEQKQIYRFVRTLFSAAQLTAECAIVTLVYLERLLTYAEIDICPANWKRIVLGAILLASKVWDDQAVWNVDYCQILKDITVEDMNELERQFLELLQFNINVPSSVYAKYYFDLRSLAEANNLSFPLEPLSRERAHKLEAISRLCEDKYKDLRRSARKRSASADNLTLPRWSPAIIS
Chain of ABL2/ARG (P42684 whole entry): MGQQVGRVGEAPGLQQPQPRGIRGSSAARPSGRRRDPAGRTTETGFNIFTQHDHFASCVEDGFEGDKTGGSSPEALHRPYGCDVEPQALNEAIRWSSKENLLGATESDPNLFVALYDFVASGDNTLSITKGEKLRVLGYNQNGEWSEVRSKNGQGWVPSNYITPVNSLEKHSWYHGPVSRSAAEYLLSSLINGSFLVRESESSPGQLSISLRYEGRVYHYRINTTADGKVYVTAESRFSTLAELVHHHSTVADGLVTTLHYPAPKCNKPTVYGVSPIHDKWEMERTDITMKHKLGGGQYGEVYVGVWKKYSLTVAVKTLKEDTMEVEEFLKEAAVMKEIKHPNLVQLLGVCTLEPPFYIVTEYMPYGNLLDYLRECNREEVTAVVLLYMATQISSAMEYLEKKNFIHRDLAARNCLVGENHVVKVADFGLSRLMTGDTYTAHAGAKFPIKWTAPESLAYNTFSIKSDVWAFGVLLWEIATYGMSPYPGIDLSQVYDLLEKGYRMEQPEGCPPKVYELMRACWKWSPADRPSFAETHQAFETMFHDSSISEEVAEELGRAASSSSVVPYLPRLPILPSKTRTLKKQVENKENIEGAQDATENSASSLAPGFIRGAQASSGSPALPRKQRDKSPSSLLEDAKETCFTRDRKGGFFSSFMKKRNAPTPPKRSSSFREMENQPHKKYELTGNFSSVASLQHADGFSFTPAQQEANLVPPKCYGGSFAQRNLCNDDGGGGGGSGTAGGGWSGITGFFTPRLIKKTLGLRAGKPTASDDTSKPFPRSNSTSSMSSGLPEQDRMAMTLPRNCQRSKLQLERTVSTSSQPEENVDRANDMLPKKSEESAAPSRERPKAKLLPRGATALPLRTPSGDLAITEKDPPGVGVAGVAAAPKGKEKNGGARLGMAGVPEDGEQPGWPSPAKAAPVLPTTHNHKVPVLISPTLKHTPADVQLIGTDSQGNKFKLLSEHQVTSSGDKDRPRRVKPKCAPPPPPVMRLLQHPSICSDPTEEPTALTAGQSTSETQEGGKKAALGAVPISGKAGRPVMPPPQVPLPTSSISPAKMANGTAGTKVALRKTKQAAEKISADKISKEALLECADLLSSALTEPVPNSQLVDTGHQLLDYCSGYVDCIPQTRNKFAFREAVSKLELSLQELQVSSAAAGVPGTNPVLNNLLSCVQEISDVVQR
Chain of EPHA2 (P29317 24-976): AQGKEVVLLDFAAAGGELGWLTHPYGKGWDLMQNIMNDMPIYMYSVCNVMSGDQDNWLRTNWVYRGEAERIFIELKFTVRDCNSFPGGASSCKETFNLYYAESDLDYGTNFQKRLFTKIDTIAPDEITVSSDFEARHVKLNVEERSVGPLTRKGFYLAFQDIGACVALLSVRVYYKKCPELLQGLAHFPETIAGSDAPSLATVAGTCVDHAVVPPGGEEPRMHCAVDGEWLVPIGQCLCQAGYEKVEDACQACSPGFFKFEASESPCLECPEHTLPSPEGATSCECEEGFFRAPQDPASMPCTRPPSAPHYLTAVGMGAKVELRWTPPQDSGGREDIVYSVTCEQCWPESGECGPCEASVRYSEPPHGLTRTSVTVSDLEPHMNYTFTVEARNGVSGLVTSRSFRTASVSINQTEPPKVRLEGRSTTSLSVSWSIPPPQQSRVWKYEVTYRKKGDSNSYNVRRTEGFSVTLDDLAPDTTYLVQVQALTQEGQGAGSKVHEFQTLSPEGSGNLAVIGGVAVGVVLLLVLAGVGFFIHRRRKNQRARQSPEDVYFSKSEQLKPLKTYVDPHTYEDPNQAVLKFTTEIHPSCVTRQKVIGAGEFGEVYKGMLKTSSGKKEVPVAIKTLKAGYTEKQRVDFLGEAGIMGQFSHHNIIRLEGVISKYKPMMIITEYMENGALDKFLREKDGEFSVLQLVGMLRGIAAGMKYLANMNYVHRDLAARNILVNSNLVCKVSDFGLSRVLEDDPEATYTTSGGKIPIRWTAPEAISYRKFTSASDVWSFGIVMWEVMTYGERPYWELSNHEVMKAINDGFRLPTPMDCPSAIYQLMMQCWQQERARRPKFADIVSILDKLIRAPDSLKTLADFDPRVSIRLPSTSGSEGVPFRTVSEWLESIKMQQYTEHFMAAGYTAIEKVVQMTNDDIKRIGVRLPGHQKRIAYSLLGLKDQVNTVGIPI
Chain of HPK1/MAP4K1 (Q92918 whole entry): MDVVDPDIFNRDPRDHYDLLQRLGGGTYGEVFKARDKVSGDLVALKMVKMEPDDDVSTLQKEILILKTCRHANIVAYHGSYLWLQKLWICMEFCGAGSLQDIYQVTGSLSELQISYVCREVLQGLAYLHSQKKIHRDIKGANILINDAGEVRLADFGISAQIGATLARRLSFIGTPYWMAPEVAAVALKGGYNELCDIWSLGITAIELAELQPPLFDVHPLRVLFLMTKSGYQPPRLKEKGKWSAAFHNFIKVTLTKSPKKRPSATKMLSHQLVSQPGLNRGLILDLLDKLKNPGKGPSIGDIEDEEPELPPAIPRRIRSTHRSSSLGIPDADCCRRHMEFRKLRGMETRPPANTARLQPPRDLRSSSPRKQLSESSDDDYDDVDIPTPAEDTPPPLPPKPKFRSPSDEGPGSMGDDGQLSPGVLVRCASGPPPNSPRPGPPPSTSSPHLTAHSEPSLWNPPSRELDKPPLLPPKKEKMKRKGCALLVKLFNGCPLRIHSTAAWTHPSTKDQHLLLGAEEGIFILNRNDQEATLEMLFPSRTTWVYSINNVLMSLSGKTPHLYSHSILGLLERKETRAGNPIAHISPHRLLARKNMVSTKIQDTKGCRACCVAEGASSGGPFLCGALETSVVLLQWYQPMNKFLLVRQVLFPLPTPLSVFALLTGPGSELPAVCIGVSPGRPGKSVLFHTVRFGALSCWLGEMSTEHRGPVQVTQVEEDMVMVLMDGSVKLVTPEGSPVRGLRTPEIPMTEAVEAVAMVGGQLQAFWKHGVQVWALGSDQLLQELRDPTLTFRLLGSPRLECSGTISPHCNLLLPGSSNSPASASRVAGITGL
Chain of CK1g2 (P78368 whole entry): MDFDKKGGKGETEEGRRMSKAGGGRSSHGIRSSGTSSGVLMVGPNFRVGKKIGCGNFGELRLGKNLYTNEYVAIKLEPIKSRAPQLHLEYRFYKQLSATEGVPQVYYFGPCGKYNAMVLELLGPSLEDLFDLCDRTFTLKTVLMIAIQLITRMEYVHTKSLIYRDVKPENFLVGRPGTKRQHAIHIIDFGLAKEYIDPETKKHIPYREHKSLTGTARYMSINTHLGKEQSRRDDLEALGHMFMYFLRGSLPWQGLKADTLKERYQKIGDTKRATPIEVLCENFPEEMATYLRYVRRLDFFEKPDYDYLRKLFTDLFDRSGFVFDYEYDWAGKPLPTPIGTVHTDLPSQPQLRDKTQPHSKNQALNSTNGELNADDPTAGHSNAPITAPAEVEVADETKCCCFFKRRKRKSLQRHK

SMILES: CCn1cnc2c(NCc3ccc(-c4ccccn4)nc3)nc(-c3ccc(N)nc3)nc21 [Example 53, N-([2,2′-bipyridin]-5-ylmethyl)-2-(6-aminopyridin-3-yl)-9-ethyl-9H-purin-6-amine]
- IC50 (CDK12/CyclinK): 0.03 µM
- Pol II CTD (Ser2) phosphorylation [1]: inhibited Pol II CTD (Ser2) phosphorylation
- Pol II CTD (Ser2) phosphorylation ([1]; listed as Compound 53): strong dose-dependent suppression of Pol II phosphorylation
- remaining activity at 10 µM (PAK4): 12.9%
- remaining activity at 10 µM (CDK16/cyclin Y (PCTAIRE)): 17.5%
- remaining activity at 10 µM (LRRK2): 17.8%
- remaining activity at 10 µM (ARK5/NUAK1): 20.8%
- remaining activity at 10 µM (CK1g1): 22.9%
- remaining activity at 10 µM (CK1g3): 24.4%
- remaining activity at 10 µM (PAK1): 24.5%
- remaining activity at 10 µM (CK1g2): 27%
- remaining activity at 10 µM (HPK1/MAP4K1): 30.2%
- remaining activity at 10 µM (TXK): 34.9%
- remaining activity at 10 µM (STK38L/NDR2): 36.9%
- remaining activity at 10 µM (EPHA2): 42.3%
- remaining activity at 10 µM (HCK): 46.5%
- remaining activity at 10 µM (SYK): 48.4%
- remaining activity at 10 µM (GLK/MAP4K3): 49.6%
- remaining activity at 10 µM (GRK7): 49.7%
- remaining activity at 10 µM (ERN1/IRE1): 50.8%
- remaining activity at 10 µM (ABL2/ARG): 56.1%
- remaining activity at 10 µM (PAK6): 57.2%
- remaining activity at 10 µM (IGF1R): 58%
- remaining activity at 10 µM (GCK/MAP4K2): 58.4%
- remaining activity at 10 µM (RIPK2): 66.1%
- remaining activity at 10 µM (TNIK): 69%
- remaining activity at 10 µM (SLK/STK2): 69.5%
- remaining activity at 10 µM (GRK1): 76.3%
- remaining activity at 10 µM (Haspin): 79.4%
- remaining activity at 10 µM (MARK3): 83.1%
- remaining activity at 10 µM (IKKb/IKBKB): 83.7%
- remaining activity at 10 µM (EGFR): 83.7%
- remaining activity at 10 µM (SSTK/TSSK6): 86.9%
- remaining activity at 10 µM (KDR/VEGFR2): 88.6%
- remaining activity at 10 µM (NEK1): 92.3%
- remaining activity at 10 µM (HIPK3): 94.1%
- remaining activity at 10 µM (AKT1): 94.9%
- remaining activity at 10 µM (IRAK2): 97.5%
- remaining activity at 10 µM (PKG1b): 97.6%
